Measured values from patent publication US10954214B2 (Janssen Pharmaceutica NV, priority 2016, dated 2021).

How the values were obtained:
[1] = tested on: IL10 secretion by TMD8 ABC-DLBCL cells; assay: Human IL10 Mesoscale assay (TMD-8); type: cell-based; conditions: Homo sapiens, TMD8; TMD-8 cells, 24 h
Method in brief: (§1)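 Read-out: MSD electrochemiluminescence of IL6/IL10 in supernatants. Cells (100,000/well, no beta-mercaptoethanol) were exposed to compounds at 15 μM down to 58.6 nM, 1:2 dilutions, for 24 h at 37° C, 5% CO2. Normalised between DMSO (high) and RN486 (low) controls.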

[2] = molecular target: full-length MALT1 protein (Strep-MALT1(1-824)-His) (Homo sapiens (Human), UniProt Q9UDY8); assay: MALT1 Biochemical Protease Assay (Ac-LRSR-AMC substrate); conditions: 10 nM FL MALT1, 200 μM Ac-LRSR-AMC, 4 h at RT; read-out: MALT1_Biochemical activity (Ac-LRSR-amc) IC50
Method in brief: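 Fluorescence from AMC release off the quenched LRSR substrate was read after a 4 h reaction at RT. Values were normalised to no-enzyme and uninhibited controls and fitted for IC50 and Hill coefficient.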

TMD8 cells = assay: 4-day proliferation assay, TMD8; type: cell-based; conditions: Homo sapiens, 96 h, 4 days incubation, CellTiterGLO, read-out: Anti-proliferation: TMD-8 IC50
Method in brief: (§2)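 Each line was plated at 10,000 cells per well for linear growth, with no beta-mercaptoethanol during the assay. OCI-Ly3 cells were below passage 10.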

[3] = tested on: IL6 secretion by TMD8 ABC-DLBCL cells; assay: Human IL6 Mesoscale assay (TMD-8); type: cell-based; conditions: Homo sapiens, TMD8; TMD-8 cells, 24 h
Method in brief: as §1

Jurkat cells = assay: PMA Induced IL2 Production In Jurkat Cells; type: cell-based; conditions: Homo sapiens, PMA/Ionomycin, 20 h, read-out: IL-2 prod h Jurkat PMA IC50
Description: Jurkat cells were maintained in complete RPMI 1640 media containing 10% fetal bovine serum, 10 mM HEPES, 100 units/mL of penicillin and 100 μg/mL of streptomycin. Prior to the assay, compounds were made 2- to 4-fold serial dilutions in DMSO. A volume of 10 μL of DMSO-diluted compound in each well were further diluted into 240 μL RPMI1640 complete media. Jurkat cells were harvested by centrifuge at 1200 RPM for 5 min, washed one time with RPMI 1640 media, and suspended in fresh complete RPMI 1640 media at concentration of 1.25×10^6 cell/mL. A volume of 160 uL of Jurkat cells (2×10^5 cells) were seeded in each well of 96 well plate-bottom plates. A volume of 20 uL of diluted compound in RMPI 1640 complete media were added to each well and incubated with Jurkat cells for 30 min at 37° C. in a 5% CO2 incubator. A volume 20 μL of diluted PMA/Ionomycin (81 nM/1.3 uM respectively, ebioscience, catalog number 00-4970-93) in RMPI 1640 complete media were added to each well. After incubation at 37° C. in 5% CO2 incubator for 20 h, supernatants were harvested. IL-2 concentration was assessed by ELISA (IL2 Duoset, R&D Systems, catalog number DY202). Colorimetric intensity at 450 nm was read by Spectramax plate reader and analyzed with Softmax Pro software. Cell viability was assessed by Cell Titer Glo kit (Promega, catalog number G7571) using Victor Luminescence reader (Victor 3V 4202938 by Perkin Elmer).

OCI-Ly3 cells = assay: 4-day proliferation assay, OCI-Ly3; type: cell-based, human; conditions: Homo sapiens, 96 h, 4 days incubation, CellTiterGLO, read-out: Anti-proliferation: OCI-LY-3 IC50
Method in brief: as §2

Chain of full-length MALT1 protein (Strep-MALT1(1-824)-His) (Q9UDY8 whole entry): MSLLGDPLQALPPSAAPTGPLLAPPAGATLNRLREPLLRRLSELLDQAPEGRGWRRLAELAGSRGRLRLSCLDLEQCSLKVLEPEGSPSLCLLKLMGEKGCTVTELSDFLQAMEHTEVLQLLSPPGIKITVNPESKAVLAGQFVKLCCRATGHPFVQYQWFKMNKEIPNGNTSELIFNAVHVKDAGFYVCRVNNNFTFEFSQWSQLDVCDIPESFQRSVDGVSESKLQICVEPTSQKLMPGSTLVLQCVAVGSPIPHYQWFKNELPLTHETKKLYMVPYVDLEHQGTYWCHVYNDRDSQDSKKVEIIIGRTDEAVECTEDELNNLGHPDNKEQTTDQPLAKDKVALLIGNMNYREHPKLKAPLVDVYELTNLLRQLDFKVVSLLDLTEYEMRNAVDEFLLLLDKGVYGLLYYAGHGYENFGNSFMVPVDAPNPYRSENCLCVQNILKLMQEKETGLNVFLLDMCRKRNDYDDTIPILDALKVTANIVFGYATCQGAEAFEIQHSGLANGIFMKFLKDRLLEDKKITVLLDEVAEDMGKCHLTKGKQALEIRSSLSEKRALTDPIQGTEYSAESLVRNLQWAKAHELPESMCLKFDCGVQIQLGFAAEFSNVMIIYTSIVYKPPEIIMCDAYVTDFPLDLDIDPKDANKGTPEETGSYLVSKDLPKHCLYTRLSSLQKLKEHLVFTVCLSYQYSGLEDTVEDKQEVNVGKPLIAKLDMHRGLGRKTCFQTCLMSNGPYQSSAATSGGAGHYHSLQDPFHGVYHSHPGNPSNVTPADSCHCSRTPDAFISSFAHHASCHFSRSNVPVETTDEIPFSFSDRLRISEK

Row | SMILES | IC50 [1] [nM] | IC50 [2] [nM] | IC50 (TMD8 cells) [nM] | IC50 [3] [nM] | IC50 (Jurkat cells) [nM] | IC50 (OCI-Ly3 cells) [nM]
1 | Cc1ccc2cncc(-n3ncc(C(=O)Nc4cnc(-n5nccn5)c(Cl)c4)c3C(F)(F)F)c2c1 [Cpd 36, N-(5-Chloro-6-(2H-1,2,3-triazol-2-yl)pyridin-3-yl)-1-(6-methylisoquinolin-4-yl)-5-(trifluoromethyl)-1H-pyrazole-4-carboxamide] | 141 | 63 | 7940 | 135 | 270 | 1910
2 | O=C(Nc1ccc(-n2ccnn2)c(Cl)c1)c1cnn(-c2cncc3ccccc23)c1C(F)(F)F [compound 43, N-(3-chloro-4-(1H-1,2,3-triazol-1-yl)phenyl)-1-(isoquinolin-4-yl)-5-(trifluoromethyl)-1H-pyrazole-4-carboxamide] | 81 | 60 | 4680 | 102 | 54 | ~260
3 | Cc1ncnn1-c1ccc(NC(=O)c2cnn(-c3cncc4ccccc34)c2C(F)(F)F)cc1Cl [Cpd 51, N-(3-Chloro-4-(5-methyl-1H-1,2,4-triazol-1-yl)phenyl)-1-(isoquinolin-4-yl)-5-(trifluoromethyl)-1H-pyrazole-4-carboxamide] | 126 | 45 | ~6610 | 62 | 96 | 200
4 | CN1CCC(Oc2ncc(NC(=O)c3cnn(-c4cncc5ccccc45)c3C(F)(F)F)cc2Cl)CC1 [Cpd 45, N-(5-chloro-6-((1-methylpiperidin-4-yl)oxy)pyridin-3-yl)-1-(isoquinolin-4-yl)-5-(trifluoromethyl)-1H-pyrazole-4-carboxamide] | 204 | 398 | ~9330 | 355 | 73 | 340
5 | Cc1ncn(-c2ccc(NC(=O)c3cnn(-c4cncc5ccccc45)c3C(F)(F)F)cc2Cl)n1 [Cpd 55, N-(3-chloro-4-(3-methyl-1H-1,2,4-triazol-1-yl)phenyl)-1-(isoquinolin-4-yl)-5-(trifluoromethyl)-1H-pyrazole-4-carboxamide] | 195 | 182 | 5250 | ~93 | 130 | 540
6 | O=C(Nc1ccnc(C(F)(F)F)c1)c1cnn(-c2cccc3ccccc23)c1C(F)(F)F [Cpd 3, 1-(Naphthalen-1-yl)-5-(trifluoromethyl)-N-(2-(trifluoromethyl)pyridin-4-yl)-1H-pyrazole-4-carboxamide] | 138 | 191 | 9550 | 219 | 160 | ~2880
7 | O=C(Nc1cncc(C(F)(F)F)c1)c1cnn(-c2cccc3ccccc23)c1C(F)(F)F [Cpd 4, 1-(Naphthalen-1-yl)-5-(trifluoromethyl)-N-(5-(trifluoromethyl)pyridin-3-yl)-1H-pyrazole-4-carboxamide] | 214 | 200 | ~15800 | 339 | 360 | ~500
8 | Cn1ccc(-c2ncc(NC(=O)c3cnn(-c4cncc5ccccc45)c3C(F)(F)F)cc2Cl)n1 [Cpd 52, N-(5-chloro-6-(1-methyl-1H-pyrazol-3-yl)pyridin-3-yl)-1-(isoquinolin-4-yl)-5-(trifluoromethyl)-1H-pyrazole-4-carboxamide] | 91 | 35 | 5010 | 79 | 130 | 210
